Measurements as given in paper PMC12406255, “Engineering Peptide Modulators for T‑Cell Migration by Structural Scaffold Matching” (Journal of Medicinal Chemistry, 2025).
Positions of bridges follow the written chain, without caps; N, C: chain ends. Non-standard residues stand in square brackets, D forms with d. Residues, ends and D or L forms follow the SMILES beside them. Nle = CCCC[C@H](N)C(=O)O

Tests used:
[1] = system: Th1 lymphocytes (CD3+, CD4+, CXCR3+, CCR6-) of MS patients; assay: Transwell migration assay with PBMC of MS patients, Th1 cells; assay type: cell-based, human; settings: PBMC of treatment-naive MS patients; mean ± SD, 4 independent measurements; p = 0.048
Protocol: (§1) 5 Activity of the novel VhTI-pep 2 and pepitem on patient lymphocytes. PPBMCs were isolated from the blood of MS patients with a very recent disease flare receiving no immunosuppressive or immunomodulatory treatment in the past. The effect of the linear pepitem and VhTI-pep 2 was tested for the T-cell populations (A) CD3^+, (B) Th1, (C) CD4^+, (D) memory CD4^+, (E) CD8^+, and (F) memory CD8^+ cells. Data are shown as mean ± SD for 4 independent measurements. Statistical analysis was performed on the level of total counted cells using repeated measures one-way ANOVA with Dunnett’s post hoc test. Statistical significance is indicated as n.s. (not significant), * p < 0.05; ** p < 0.01; *** p < 0.001.
(§2) Human microvascular endothelial cells (HMEC-1 cells, Cytion, Eppelheim, Germany) were cultured in MCDB-131 medium (with 2.2 g/L sodium bicarbonate, without L-glutamine, PAN-Biotech Aidenbach, Germany) supplemented with 10% fetal bovine serum (FBS, Capricorn Scientific, Ebsdorfergrund, Germany), 100 units/ml penicillin-streptomycin (Sigma-Aldrich) 10 ng/mL epidermal growth factor (BioLegend, San Diego, US), 1 μg/mL hydrocortisone (Sigma-Aldrich), and 10 mM L-glutamine (Sigma-Aldrich). For experiments, the cells were used between passage numbers 4–9. […]

[2] = system: CD8+ cells of MS patients; assay: Transwell migration assay with PBMC of MS patients, CD8+ cells; assay type: cell-based, human; settings: PBMC of treatment-naive MS patients; too few cells to test significance
Protocol: as §1, §2

Structure (SMILES): CCCC[C@@H]1NC(=O)[C@H](C(C)C)NC(=O)[C@H](CCCCN)NC(=O)[C@@H](NC(=O)[C@H](CCC(N)=O)NC(=O)[C@H](CCC(=O)O)NC(C)=O)CSSC[C@@H](C(=O)N[C@@H](CCC(=O)O)C(=O)N[C@@H](CCCCN)C(N)=O)NC(=O)[C@H](CC(N)=O)NC(=O)[C@H](CC(=O)O)NC(=O)[C@H](CC(C)C)NC(=O)[C@@H]2CSSC[C@H](NC1=O)C(=O)N[C@@H](Cc1ccc(O)cc1)C(=O)N[C@@H](C)C(=O)N[C@@H](CCC(N)=O)C(=O)NCC(=O)N[C@@H](C)C(=O)N[C@@H](CCC(=O)O)C(=O)N[C@@H](CC(C)C)C(=O)N1CCC[C@H]1C(=O)N[C@@H](CCC(=O)O)C(=O)N[C@@H](CC(C)C)C(=O)N[C@@H](CC(C)C)C(=O)N[C@@H](CCCNC(=N)N)C(=O)N[C@@H](CCCNC(=N)N)C(=O)N2 [VhTI-pep 2] (Ac-EQCKV[Nle]CYAQGAELPELLRRCLDNCEK-NH2; disulfide 3-25, 7-21)
- inhibition of migration of Th1 lymphocytes [1]: 34.3 ± 11.4%
- migration of CD8+ cells of MS patients (in words) [2]: positive trend
